Test system: P12-Ichikawa
Experiment: cell viability relative to DMSO control; higher = less cytotoxic
Details: 48 h
Outline: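 NOMO1, SEM and P12-Ichikawa leukemia cells spent at least four passages adapting to each medium before use. They were seeded at 500 cells/well (NOMO1, SEM) or 1000 cells/well (P12-Ichikawa) in 5 μl in 1536-well plates and pin-dosed with library compounds in DMSO at 11 threefold steps from 47 μM down to 0.79 nM. After 48 h at 37°C, CellTiter-Glo One luminescence was read. Viability is reported as a percentage of the DMSO wells on each plate, with cell-free wells as background.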

[1] = HPLM + 10% dialyzed FBS, 0.000781 µM
[2] = HPLM + 10% dialyzed FBS, 0.00234 µM
[3] = HPLM + 10% dialyzed FBS, 0.00702 µM
[4] = HPLM + 10% dialyzed FBS, 0.0211 µM
[5] = HPLM + 10% dialyzed FBS, 0.0632 µM
[6] = HPLM + 10% dialyzed FBS, 0.19 µM
[7] = HPLM + 10% dialyzed FBS, 0.569 µM
[8] = HPLM + 10% dialyzed FBS, 1.71 µM
[9] = HPLM + 10% dialyzed FBS, 5.12 µM
[10] = HPLM + 10% dialyzed FBS, 15.4 µM
[11] = HPLM + 10% dialyzed FBS, 46.1 µM
[12] = RPMI 5 mM glucose + 10% FBS, 0.000781 µM
[13] = RPMI 5 mM glucose + 10% FBS, 0.00234 µM
[14] = RPMI 5 mM glucose + 10% FBS, 0.00702 µM
[15] = RPMI 5 mM glucose + 10% FBS, 0.0211 µM
[16] = RPMI 5 mM glucose + 10% FBS, 0.0632 µM
[17] = RPMI 5 mM glucose + 10% FBS, 0.19 µM
[18] = RPMI 5 mM glucose + 10% FBS, 0.569 µM
[19] = RPMI 5 mM glucose + 10% FBS, 1.71 µM
[20] = RPMI 5 mM glucose + 10% FBS, 5.12 µM
[21] = RPMI 5 mM glucose + 10% FBS, 15.4 µM
[22] = RPMI 5 mM glucose + 10% FBS, 46.1 µM
[23] = RPMI 5 mM glucose + 10% dialyzed FBS, 0.000781 µM
[24] = RPMI 5 mM glucose + 10% dialyzed FBS, 0.00234 µM
[25] = RPMI 5 mM glucose + 10% dialyzed FBS, 0.00702 µM
[26] = RPMI 5 mM glucose + 10% dialyzed FBS, 0.0211 µM
[27] = RPMI 5 mM glucose + 10% dialyzed FBS, 0.0632 µM
[28] = RPMI 5 mM glucose + 10% dialyzed FBS, 0.19 µM
[29] = RPMI 5 mM glucose + 10% dialyzed FBS, 0.569 µM
[30] = RPMI 5 mM glucose + 10% dialyzed FBS, 1.71 µM
[31] = RPMI 5 mM glucose + 10% dialyzed FBS, 5.12 µM
[32] = RPMI 5 mM glucose + 10% dialyzed FBS, 15.4 µM
[33] = RPMI 5 mM glucose + 10% dialyzed FBS, 46.1 µM

SMILES	cell viability [1] [%]	cell viability [2] [%]	cell viability [3] [%]	cell viability [4] [%]	cell viability [5] [%]	cell viability [6] [%]	cell viability [7] [%]	cell viability [8] [%]	cell viability [9] [%]	cell viability [10] [%]	cell viability [11] [%]	cell viability [12] [%]	cell viability [13] [%]	cell viability [14] [%]	cell viability [15] [%]	cell viability [16] [%]	cell viability [17] [%]	cell viability [18] [%]	cell viability [19] [%]	cell viability [20] [%]	cell viability [21] [%]	cell viability [22] [%]	cell viability [23] [%]	cell viability [24] [%]	cell viability [25] [%]	cell viability [26] [%]	cell viability [27] [%]	cell viability [28] [%]	cell viability [29] [%]	cell viability [30] [%]	cell viability [31] [%]	cell viability [32] [%]	cell viability [33] [%]
OC[C@H]1OCC(O1)[N@@]2C=CC(N)=NC2=O (stereo partly specified)	121	118	113	121	112	118	117	107	115	108	115	108	125	117	118	118	117	118	107	104	101	103	116	121	115	109	114	113	109	106	105	104	105
O=c1[nH]c2ccccc2n1C1CCN(Cc2ccc(-c3nc4cc5nc[nH]c5cc4nc3-c3ccccc3)cc2)CC1	109	125	116	125	117	132	115	102	105	109	115	111	102	110	111	115	114	106	85.4	104	109	106	121	114	114	121	114	110	105	91.1	103	96	107
CC(N)C12CC3CC(CC(C3)C1)C2 (stereo unspecified)	105	108	111	117	124	109	111	114	110	99.1	8.72	103	113	101	–	123	118	112	112	111	117	13.2	105	106	115	101	112	110	108	125	108	105	18.8
C[C@]12CC[C@@H]3c4ccc(O)cc4C[C@@H](CCCCCCCCC[S+]([O-])CCCC(F)(F)C(F)(F)F)[C@H]3[C@@H]1CC[C@@H]2O (stereo partly specified)	112	119	115	116	112	117	112	112	116	104	104	–	–	–	–	–	–	–	–	–	–	–	–	–	–	–	–	–	–	–	–	–	–
FC(F)c1nc2ccccc2n1-c1nc(N2CCOCC2)nc(N2CCOCC2)n1	98.2	108	107	104	101	91.4	85.4	78.5	83.8	81.9	59.1	98	104	96	85.4	92.8	71	64.7	58.9	61.1	58.7	58	106	94.5	103	102	95.3	92.6	75.7	54.4	63.5	64.8	55.8
Cn1cnc2c1c(=O)[nH]c(=O)n2C	105	107	100	104	110	105	112	108	97.1	98	9.4	104	104	93.9	97.6	103	103	100	98.5	99	82.2	34.1	102	102	103	102	100	99.8	103	97.9	87.2	80.9	25.7
O=C(c1ccc(Nc2nccc(-c3cc4ccccc4s3)n2)cc1)N1CCC(N2CCCC2)CC1	115	109	116	112	120	107	103	98.8	99.5	67.7	3.26	117	125	119	117	114	107	112	112	105	82.9	6.91	113	119	115	119	123	106	113	107	101	63.8	7
CC/1=C(/N2[C@H](SC1)[C@H](NC(=O)[C@H](N)\C3=C\C\C=C/C3)C2=O)C(O)=O	96.8	117	116	121	126	115	111	126	128	120	113	99.5	91.8	110	116	103	120	117	119	120	124	122	111	112	116	112	118	118	118	117	125	133	125
